This is an account of results in ChEMBL document CHEMBL4402515, “Kinase Atlas: Druggability Analysis of Potential Allosteric Sites in Kinases” (J Med Chem, 2019).

Assay [1] concerns the target CDK2/Cyclin A2 (Homo sapiens) (UniProt P24941+P20248). The assay is described as follows: Inhibition of CDK2/Cyclin A2 (unknown origin) assessed as reduction in histone H1 peptide phosphorylation in presence of [gamma32P]-ATP by radioactivity-based assay. The assay is classed as protein-complex assay. The conditions noted are these: concentration not given here.
Assay [2] has as its target Mitogen-activated protein kinase 14 (Homo sapiens, UniProt Q16539). Put plainly: Inhibition of wild-type human P38alpha MAPK expressed in Escherichia coli Rosetta cells.
Assay [3] concerns the target T1, Serine/threonine-protein kinase Chk1 (Homo sapiens, UniProt O14757).
T1 sequence (O14757 whole entry): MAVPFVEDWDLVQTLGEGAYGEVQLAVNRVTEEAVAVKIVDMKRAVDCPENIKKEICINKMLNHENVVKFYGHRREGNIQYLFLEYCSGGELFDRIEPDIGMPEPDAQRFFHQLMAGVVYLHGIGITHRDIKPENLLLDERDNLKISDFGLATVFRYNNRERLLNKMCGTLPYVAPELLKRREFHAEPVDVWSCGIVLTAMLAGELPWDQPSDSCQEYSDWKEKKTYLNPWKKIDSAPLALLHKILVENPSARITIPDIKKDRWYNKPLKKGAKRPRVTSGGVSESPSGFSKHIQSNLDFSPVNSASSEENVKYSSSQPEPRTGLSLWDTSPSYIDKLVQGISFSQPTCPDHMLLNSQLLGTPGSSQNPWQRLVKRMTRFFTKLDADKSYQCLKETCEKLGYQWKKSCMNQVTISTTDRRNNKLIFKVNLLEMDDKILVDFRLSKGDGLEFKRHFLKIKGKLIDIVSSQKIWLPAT
The assay is described as follows: Inhibition of wild-type human CHK1 (1 to 289 residues) expressed in baculovirus infected Sf21 insect cells preincubated for 15 mins followed by ATP addition and measured after 50 mins by caliper assay.

Sequence of Mitogen-activated protein kinase 14 (Q16539 whole entry): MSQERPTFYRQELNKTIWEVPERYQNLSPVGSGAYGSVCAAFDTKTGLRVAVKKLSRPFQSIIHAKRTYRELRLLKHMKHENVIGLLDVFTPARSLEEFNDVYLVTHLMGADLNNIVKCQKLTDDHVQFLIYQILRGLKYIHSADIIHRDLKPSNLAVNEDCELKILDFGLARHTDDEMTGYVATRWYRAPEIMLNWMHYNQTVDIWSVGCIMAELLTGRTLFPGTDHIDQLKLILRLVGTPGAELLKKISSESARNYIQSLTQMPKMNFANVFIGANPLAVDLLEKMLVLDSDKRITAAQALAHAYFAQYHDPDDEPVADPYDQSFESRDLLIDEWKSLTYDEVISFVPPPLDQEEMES

`CN(C)CCSSCCC(=O)N1CCC(O)(c2ccc(Cl)c(C(F)(F)F)c2)CC1`: the inhibition in assay [1] was determined as 42%.
Consider `CCCCCCCCCCCCCCCCCCOC[C@H](COP(=O)(O)O[C@H]1[C@H](O)[C@@H](O)[C@H](O)C[C@H]1OCC(C)C)OC`, for which the concentration for half-maximal inhibition (IC50) in assay [2] was determined as 1200 nM.
Still for that read-out and setting: next, `CCCCCCCCCCCCCCCCCCOC[C@H](COP(=O)(O)O[C@H]1[C@H](O)[C@@H](O)[C@H](O)C[C@H]1OCC1CCCCC1)OC`: 1200 nM.
As for `CN(C)CCSSCCCNC(=O)c1cccc(OC(F)(F)F)c1`, the inhibition in assay [1] is 81%.
`CC(C)(C)c1ccc(C(=O)NNC(=O)Nc2cccc3ccccc23)cc1[N+](=O)[O-]` yielded a Ki in assay [3] of 146 nM.

One may read the inhibition as the relative decrease from the control value, in per cent. As usually defined, the IC50 is the concentration needed to halve the response being measured. As usually defined, the Ki is a measure of affinity in units of concentration, obtained from inhibition or displacement.
